Assay results as given in patent US20060159631A1, “Compositions and methods for preventing dental stain” (SMITHKLINE BEECHAM CORPORATION, priority 2003, published 2006).

Test: Coffee stain challenge on saliva pellicle-treated HAP discs, rated by visual inspection
Details: subjective index of 1 to 10 (1 representing greatest stain), coffee 24 hours, None = 2.0
Protocol: In a series of experiments, HAP discs were first treated with saliva to generate an artificial pellicle. […] Following a second rinse, the active-treated discs were immersed in a concentrated solution of coffee for a period of 24 hours in order to simulate a dietary stain challenge. After rinsing to remove excess coffee solution, the discs were dried and rated for stain by visual inspection. Using a subjective index of 1 to 10 (1 representing greatest stain), stain intensity is tabluated below.

| Molecule | Stain Intensity (10% (w/w) active) | Stain Intensity (2% (w/w) active) | Stain Intensity (5% (w/w) active) |
| --- | --- | --- | --- |
| O=P(O)(O)OP(=O)(O)OP(=O)(O)O [STP] | 5.5 |  |  |
| pegulated lauryl phosphate ether [DLP-10] |  | 3.5 | 4.0 |
